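Tested at 5 concentrations; 48 h exposure; 96-well plates; endpoints linearly interpolated, else capped at highest concentration. GI50 is the concentration that inhibits growth by half.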 The source made the active and inactive calls. No stated cut-off is given here; in the data, active = GI50 up to about 1.1 µM and inactive = higher.
Key:
Assay in all cases: DTP human tumour cell line panel, 48 h
[1] = tested on: OVCAR-4
[2] = tested on: TK-10
[3] = tested on: A498
[4] = tested on: SK-OV-3
[5] = tested on: UACC-257
[6] = tested on: KM12
[7] = tested on: MDA-MB-231
[8] = tested on: RXF 393
[9] = tested on: CCRF-CEM
[10] = tested on: HCT-15
[11] = tested on: SN12C
[12] = tested on: NCI-H522
[13] = tested on: U-251
[14] = tested on: HCT-116
[15] = tested on: NCI-H23
[16] = tested on: A549
[17] = tested on: ACHN
[18] = tested on: HOP-62
[19] = tested on: SF-268
[20] = tested on: COLO 205

Compound	GI50 [1]	GI50 [2]	GI50 [3]	GI50 [4]	GI50 [5]	GI50 [6]	GI50 [7]	GI50 [8]	GI50 [9]	GI50 [10]	GI50 [11]	GI50 [12]	GI50 [13]	GI50 [14]	GI50 [15]	GI50 [16]	GI50 [17]	GI50 [18]	GI50 [19]	GI50 [20]
COC(=O)C(=O)C(C(=O)C(=O)Nc1ccc(C)cc1)c1nc2ccc(C(=O)c3ccccc3)cc2nc1O (configuration not stated)	49 µM (inactive)	> 100 µM (inactive)	> 100 µM (inactive)	> 100 µM (inactive)	> 100 µM (inactive)	30.4 µM (inactive)	> 100 µM (inactive)	55 µM (inactive)	76.4 µM (inactive)	52.2 µM	> 100 µM (inactive)	30.5 µM (inactive)	> 100 µM (inactive)	> 100 µM (inactive)	> 100 µM (inactive)	> 100 µM (inactive)	> 100 µM (inactive)	46.9 µM (inactive)	73.6 µM (inactive)	
COc1ccc2ccccc2c1C1NC(=O)c2ccccc2N1 (configuration not stated)		5.15 µM (inactive)	1.3 µM (inactive)	2.82 µM (inactive)	20.8 µM (inactive)	0.733 µM (active)	3.63 µM (inactive)	1.37 µM (inactive)	0.711 µM (active)	0.436 µM	2.67 µM (inactive)	1.54 µM (inactive)	2.28 µM (inactive)	0.614 µM (active)	4.67 µM (inactive)	1.51 µM (inactive)	1.26 µM (inactive)	3.51 µM (inactive)	3.08 µM (inactive)	1.87 µM (inactive)
CC(C)/C(Cl)=N/OC(=O)Nc1ccc(OC(F)(F)F)cc1	4.19 µM (inactive)	15.9 µM (inactive)	18.6 µM (inactive)	17.6 µM (inactive)	13.7 µM (inactive)	16.6 µM (inactive)	15.6 µM (inactive)	4.03 µM (inactive)	1.27 µM (inactive)	6.12 µM	16.4 µM (inactive)	1.47 µM (inactive)	17.3 µM (inactive)	6.65 µM (inactive)	15.7 µM (inactive)	17 µM (inactive)	12.6 µM (inactive)	17.7 µM (inactive)	23.2 µM (inactive)	1.84 µM (inactive)
COC(=O)C1(O)C(c2ccccc2)=NC2(C)CCCC21 (configuration not stated)	> 100 µM (inactive)	> 100 µM (inactive)	> 100 µM (inactive)	> 100 µM (inactive)	> 100 µM (inactive)	> 100 µM (inactive)	> 100 µM (inactive)	> 100 µM (inactive)	> 100 µM (inactive)	> 100 µM	> 100 µM (inactive)	> 100 µM (inactive)	> 100 µM (inactive)	> 100 µM (inactive)	> 100 µM (inactive)	> 100 µM (inactive)		> 100 µM (inactive)	> 100 µM (inactive)	> 100 µM (inactive)
CCCCSC1=N/C(=C\c2ccc(N(C)C)cc2)C(=O)N1	21 µM (inactive)	> 100 µM (inactive)	13.9 µM (inactive)	41.2 µM (inactive)	20.4 µM (inactive)	18 µM (inactive)	24 µM (inactive)	30 µM (inactive)	> 100 µM (inactive)	53.5 µM	16.3 µM (inactive)	21.7 µM (inactive)	18.4 µM (inactive)	25 µM (inactive)	67.9 µM (inactive)	17.3 µM (inactive)	29.8 µM (inactive)	46.2 µM (inactive)	32.8 µM (inactive)	35.5 µM (inactive)
CCOC(=O)NNC(=O)NCc1ccccc1CNC(=O)NNC(=O)OCC	> 100 µM (inactive)	> 100 µM (inactive)	> 100 µM (inactive)	> 100 µM (inactive)	> 100 µM (inactive)	> 100 µM (inactive)	> 100 µM (inactive)	> 100 µM (inactive)	> 100 µM (inactive)	> 100 µM	> 100 µM (inactive)	> 100 µM (inactive)	> 100 µM (inactive)	> 100 µM (inactive)	> 100 µM (inactive)	> 100 µM (inactive)			> 100 µM (inactive)	> 100 µM (inactive)
CCOc1cc(C2SCC(=O)N2c2nc3cc4sc(N5C(=O)CSC5c5ccc(O)c(OCC)c5)nc4cc3s2)ccc1O (configuration not stated)	48.4 µM (inactive)	> 100 µM (inactive)	48.6 µM (inactive)	> 100 µM (inactive)		45.3 µM (inactive)	> 48.5 µM (inactive)	> 100 µM (inactive)	4.16 µM (inactive)	8.47 µM	> 31.5 µM (inactive)	20.4 µM (inactive)	26.5 µM (inactive)	20.9 µM (inactive)	9.59 µM (inactive)	6.98 µM (inactive)	> 48.4 µM (inactive)	> 100 µM (inactive)	> 68.2 µM (inactive)	4.8 µM (inactive)
CN(C)C(=O)OC(Cn1cncn1)(Cn1cncn1)c1ccc(Cl)cc1Cl	> 100 µM (inactive)	> 100 µM (inactive)	> 100 µM (inactive)	> 100 µM (inactive)	> 100 µM (inactive)	> 100 µM (inactive)	> 100 µM (inactive)	> 100 µM (inactive)	> 100 µM (inactive)	> 100 µM		> 100 µM (inactive)	> 100 µM (inactive)			> 100 µM (inactive)		> 100 µM (inactive)	> 100 µM (inactive)	> 100 µM (inactive)
CCOC(=O)Cc1cc(=O)oc2cc(O)ccc12		> 100 µM (inactive)	> 100 µM (inactive)	> 100 µM (inactive)	> 100 µM (inactive)	> 100 µM (inactive)	> 100 µM (inactive)	> 100 µM (inactive)	> 100 µM (inactive)	> 100 µM	> 100 µM (inactive)	> 100 µM (inactive)	> 100 µM (inactive)	> 100 µM (inactive)	> 100 µM (inactive)	> 100 µM (inactive)	> 100 µM (inactive)		> 100 µM (inactive)	> 100 µM (inactive)
Cc1cn(CC2=NCC(C)(C)N2)c(=O)[nH]c1=O		> 100 µM (inactive)	> 100 µM (inactive)	> 100 µM (inactive)	> 100 µM (inactive)		> 100 µM (inactive)	> 100 µM (inactive)	< 0.01 µM (active)	> 100 µM	> 100 µM (inactive)	> 100 µM (inactive)	> 100 µM (inactive)	> 100 µM (inactive)	> 100 µM (inactive)	> 100 µM (inactive)	> 100 µM (inactive)	> 100 µM (inactive)	> 100 µM (inactive)	> 100 µM (inactive)
COc1cc(/C=C2\C(=O)N(c3cccc([N+](=O)[O-])c3)C(c3ccccc3)S2(=O)=O)cc(OC)c1OC (configuration not stated)	80 µM (inactive)	> 100 µM (inactive)	> 100 µM (inactive)	> 100 µM (inactive)	> 100 µM (inactive)	92.7 µM (inactive)	> 100 µM (inactive)	> 100 µM (inactive)	62.2 µM (inactive)	> 100 µM	> 100 µM (inactive)	> 100 µM (inactive)	> 100 µM (inactive)	> 100 µM (inactive)	> 100 µM (inactive)	> 100 µM (inactive)	> 100 µM (inactive)	> 100 µM (inactive)		> 100 µM (inactive)
CSC(=N/C=C/c1ccccc1)SC	> 100 µM (inactive)		> 100 µM (inactive)	> 100 µM (inactive)	> 100 µM (inactive)	> 100 µM (inactive)	> 100 µM (inactive)	25.2 µM (inactive)	98.9 µM (inactive)	> 100 µM	> 100 µM (inactive)	64 µM (inactive)	> 100 µM (inactive)	> 100 µM (inactive)	> 100 µM (inactive)	60.3 µM (inactive)	> 100 µM (inactive)	> 100 µM (inactive)	> 100 µM (inactive)	> 100 µM (inactive)
CCCCCCCCCCCCCCCC(=O)OCC1OC(OC)C(NC(=O)N(CCCl)N=O)C(O)C1O (configuration not stated)	20 µM (inactive)	22.8 µM (inactive)	29.6 µM (inactive)	21.8 µM (inactive)	19.7 µM (inactive)	19 µM (inactive)	17.9 µM (inactive)	16.7 µM (inactive)	7.36 µM (inactive)	13.1 µM	13.4 µM (inactive)	15.9 µM (inactive)	8.38 µM (inactive)	13 µM (inactive)	11.5 µM (inactive)	9.68 µM (inactive)	13.4 µM (inactive)	8.04 µM (inactive)	3.34 µM (inactive)	19.2 µM (inactive)
N=S(c1ccccc1[N+](=O)[O-])c1ccccc1[N+](=O)[O-]	0.914 µM (active)	3.84 µM (inactive)	28 µM (inactive)	8.63 µM (inactive)	2.33 µM (inactive)	3.34 µM (inactive)	1.77 µM (inactive)	2.69 µM (inactive)	1.04 µM (active)	0.912 µM	1.11 µM (active)	0.494 µM (active)		1.23 µM (inactive)	3.52 µM (inactive)	4.45 µM (inactive)	1.22 µM (inactive)	4.65 µM (inactive)	4.73 µM (inactive)	1.3 µM (inactive)
CC(O)=NC(Cc1ccc2ccccc2c1)C(O)=NC(Cc1ccc(Cl)cc1)C(O)=NC(Cc1c[nH]c2ccccc12)C(O)=NC(CO)C(O)=NC(Cc1ccc(O)cc1)C(O)=NC(CCCN=C(N)N)C(O)=NC(CC(C)C)C(O)=NC(CCCN=C(N)N)C(=O)N1CCCC1C(O)=NC(C)C(=N)O (configuration not stated)	74 µM (inactive)	30.9 µM (inactive)	37.6 µM (inactive)	43.5 µM (inactive)	32.4 µM (inactive)	41.1 µM (inactive)	59.7 µM (inactive)	37.1 µM (inactive)	> 100 µM (inactive)	63 µM	37.5 µM (inactive)	45.9 µM (inactive)	31.6 µM (inactive)		31.3 µM (inactive)	42.6 µM (inactive)	15 µM (inactive)	85.7 µM (inactive)	> 100 µM (inactive)	26.3 µM (inactive)

From ChEMBL document CHEMBL1201862, “PubChem BioAssay data set” (2004)
